Experimental data reported in patent US8952024B2, “Herbicidal pyrimidone derivatives” (E I du Pont de Nemours and Company, priority 2009, dated 2015).

Experiments:
Experiment in all cases: Test B pre-/postemergence plant response
Format in all cases: in vivo
[1] = tested on: Italian ryegrass (Lolium multiflorum)
Method in brief: (§1)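 Ratings reflect visual comparison with untreated controls 13 to 15 days after application, from 0 (no effect) to 100 (complete control). Application was preemergence to seeded loam/sand soil or postemergence to 1- to 4-leaf plants, with compound in a non-phytotoxic, surfactant-containing solvent.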

[2] = tested on: bermudagrass (Cynodon dactylon)
Method in brief: as §1

corn (Zea mays) = tested on: corn (Zea mays)
Method in brief: as §1

[3] = tested on: downy bromegrass (Bromus tectorum)
Method in brief: as §1

[4] = tested on: giant foxtail (Setaria faberii)
Method in brief: as §1

[5] = tested on: goosegrass (Eleusine indica)
Method in brief: as §1

[6] = tested on: green foxtail (Setaria viridis)
Method in brief: as §1

[7] = tested on: johnsongrass (Sorghum halepense)
Method in brief: as §1

[8] = tested on: large crabgrass (Digitaria sanguinalis)
Method in brief: as §1

[9] = tested on: morningglory (Ipomoea coccinea)
Method in brief: as §1

[10] = tested on: ragweed (common ragweed, Ambrosia elatior)
Method in brief: as §1

[11] = tested on: woolly cupgrass (Eriochloa villosa)
Method in brief: as §1

[12] = tested on: yellow nutsedge (Cyperus esculentus)
Method in brief: as §1

[13] = Postemergence, 31 g ai/ha, 0 to 100 scale (0 no effect, 100 complete control)
[14] = Postemergence, 62 g ai/ha, scale 0 to 100 (0 no effect, 100 complete control)
[15] = Postemergence, 250 g ai/ha, scale 0 to 100 (0 no effect, 100 complete control), 13 to 15 days
[16] = Postemergence, 125 g ai/ha, scale 0 to 100 (0 no effect, 100 complete control)
[17] = 31 g ai/ha, postemergence, scale 0 to 100, 0 is no effect, 100 is complete control
[18] = 62 g ai/ha, postemergence, 0 is no effect, 100 is complete control, 13 to 15 days
[19] = Postemergence, 250 g ai/ha, scale 0 to 100 (0 no effect, 100 complete control)
[20] = Postemergence, 125 g ai/ha, visual rating after 13 to 15 days, scale 0 (no effect) to 100 (complete control)

SMILES: CCCn1c(-c2ccsc2)ncc(C(=O)C2=C(O)C3CCC(C3)C2=O)c1=O (stereo not shown) [Compound 227]
- Plant response rating, Ryegrass, Italian [1, 13]: 0
- Plant response rating, Ryegrass, Italian [1, 14]: 0
- Plant response rating, Ryegrass, Italian [1, 15]: 10
- Plant response rating, Bermudagrass [2, 13]: 75
- Plant response rating, Bermudagrass [2, 14]: 75
- Plant response rating, Bermudagrass [2, 16]: 85
- Plant response rating, Bermudagrass [2, 15]: 90
- Plant response rating, Corn (corn (Zea mays); [13]): 20
- Plant response rating, Corn (corn (Zea mays); [14]): 75
- Plant response rating, Corn (corn (Zea mays); [16]): 75
- Plant response rating, Corn (corn (Zea mays); [15]): 85
- Plant response rating, Bromegrass, Downy [3, 13]: 0
- Plant response rating, Bromegrass, Downy [3, 14]: 0
- Plant response rating, Bromegrass, Downy [3, 16]: 0
- Plant response rating, Bromegrass, Downy [3, 15]: 25
- Plant response rating, Foxtail, Giant [4, 13]: 75
- Plant response rating, Foxtail, Giant [4, 14]: 80
- Plant response rating, Foxtail, Giant [4, 16]: 90
- Plant response rating, Foxtail, Giant [4, 15]: 98
- Plant response rating, Goosegrass [5, 13]: 75
- Plant response rating, Goosegrass [5, 14]: 75
- Plant response rating, Goosegrass [5, 16]: 75
- Plant response rating, Goosegrass [5, 15]: 80
- Plant response rating, Foxtail, Green [6, 13]: 50
- Plant response rating, Foxtail, Green [6, 14]: 90
- Plant response rating, Foxtail, Green [6, 16]: 90
- Plant response rating, Foxtail, Green [6, 15]: 90
- Plant response rating, Johnsongrass [7, 13]: 45
- Plant response rating, Johnsongrass [7, 14]: 60
- Plant response rating, Johnsongrass [7, 16]: 60
- Plant response rating, Johnsongrass [7, 15]: 65
- Plant response rating, Crabgrass, Large [8, 13]: 80
- Plant response rating, Crabgrass, Large [8, 14]: 80
- Plant response rating, Crabgrass, Large [8, 16]: 85
- Plant response rating, Crabgrass, Large [8, 15]: 90
- Plant response rating, Morningglory [9, 13]: 100
- Plant response rating, Morningglory [9, 14]: 100
- Plant response rating, Morningglory [9, 16]: 100
- Plant response rating, Morningglory [9, 15]: 100
- Plant response rating, Ragweed [10, 13]: 60
- Plant response rating, Ragweed [10, 14]: 70
- Plant response rating, Ragweed [10, 15]: 85
- Plant response rating, Cupgrass, Woolly [11, 13]: 55
- Plant response rating, Cupgrass, Woolly [11, 14]: 75
- Plant response rating, Cupgrass, Woolly [11, 16]: 90
- Plant response rating, Cupgrass, Woolly [11, 15]: 95
- Plant response rating, Nutsedge, Yellow [12, 13]: 10
- Plant response rating, Nutsedge, Yellow [12, 14]: 45
- Plant response rating, Nutsedge, Yellow [12, 16]: 65
- Plant response rating, Nutsedge, Yellow [12, 15]: 65

SMILES: O=C1CCCC(OC(=O)C2CC2)=C1C(=O)c1cnc(-c2ccccc2)n(-c2ccccc2)c1=O [Compound 88]
- Plant response rating, Ryegrass, Italian [1, 17]: 5
- Ryegrass, Italian plant response rating (0 to 100 scale) [1, 18]: 5
- Plant response rating, Ryegrass, Italian [1, 19]: 80
- Plant response rating, Bermudagrass [2, 17]: 80
- Bermudagrass plant response rating (0 to 100 scale) [2, 18]: 80
- Plant response rating, Bermudagrass [2, 20]: 80
- Plant response rating, Bermudagrass [2, 19]: 85
- Plant response rating, Corn (corn (Zea mays); [17]): 15
- Corn plant response rating (0 to 100 scale) (corn (Zea mays); [18]): 65
- Plant response rating, Corn (corn (Zea mays); [20]): 65
- Plant response rating, Corn (corn (Zea mays); [19]): 80
- Plant response rating, Bromegrass, Downy [3, 17]: 40
- Bromegrass, Downy plant response rating (0 to 100 scale) [3, 18]: 45
- Plant response rating, Bromegrass, Downy [3, 20]: 45
- Plant response rating, Bromegrass, Downy [3, 19]: 60
- Plant response rating, Foxtail, Giant [4, 17]: 95
- Foxtail, Giant plant response rating (0 to 100 scale) [4, 18]: 95
- Plant response rating, Foxtail, Giant [4, 19]: 95
- Plant response rating, Goosegrass [5, 17]: 65
- Goosegrass plant response rating (0 to 100 scale) [5, 18]: 70
- Plant response rating, Goosegrass [5, 19]: 70
- Plant response rating, Foxtail, Green [6, 17]: 95
- Foxtail, Green plant response rating (0 to 100 scale) [6, 18]: 98
- Plant response rating, Foxtail, Green [6, 19]: 100
- Plant response rating, Johnsongrass [7, 17]: 95
- Johnsongrass plant response rating (0 to 100 scale) [7, 18]: 100
- Plant response rating, Johnsongrass [7, 19]: 100
- Plant response rating, Crabgrass, Large [8, 17]: 95
- Crabgrass, Large plant response rating (0 to 100 scale) [8, 18]: 98
- Plant response rating, Crabgrass, Large [8, 20]: 98
- Plant response rating, Crabgrass, Large [8, 19]: 98
- Plant response rating, Morningglory [9, 17]: 90
- Morningglory plant response rating (0 to 100 scale) [9, 18]: 90
- Plant response rating, Morningglory [9, 19]: 95
- Plant response rating, Ragweed [10, 17]: 75
- Ragweed plant response rating (0 to 100 scale) [10, 18]: 80
- Plant response rating, Ragweed [10, 19]: 98
- Plant response rating, Cupgrass, Woolly [11, 17]: 75
- Cupgrass, Woolly plant response rating (0 to 100 scale) [11, 18]: 80
- Plant response rating, Cupgrass, Woolly [11, 20]: 90
- Plant response rating, Cupgrass, Woolly [11, 19]: 95
- Plant response rating, Nutsedge, Yellow [12, 17]: 25
- Nutsedge, Yellow plant response rating (0 to 100 scale) [12, 18]: 65
- Plant response rating, Nutsedge, Yellow [12, 19]: 75
